Measured values reported in patent US12215085B2 (priority 2019, dated 2025).

Legend:
[1] = test system: rats with common carotid artery occlusion-induced vascular dementia; experiment: Step-down test, common carotid artery occlusion-induced vascular dementia rats; assay type: in vivo, rat; settings: step-down method, x ± s, succinate
Excerpt: (§1) A rat blood vessel dementia model was made according to the references [ZHAO Xian-lin, FANG Xiu-bin, LI Dong-pei. Establishment of Vascular Dementia Model in Rats, J Chin Med Univ, 2002, 31 (3): 166-168; WANG Yong-yan, Zhang Bo-li, Editor-in-chief. Modern Chinese Medicine Clinic and Research on Vascular Dementia, People's Medical Publishing House, October 2003, First Version 214]: Chloral hydrate 0.4 g/kg was intraperitoneally injected for anesthetizing rats, and bilateral common carotid arteries were isolated and ligated. The animals were fed for 16 weeks, divided into groups on the last 7 days, and administered. The normal control group and the model group were administrated through the intragastric route with distilled water by 0.5 ml/100 g, the positive control group was administrated through the intragastric route with donepezil hydrochloride by 1.75 mg/kg (equivalent to 3.85 times the clinical daily dosage of 5 mg/70 kg), the low, medium and high-dose groups of Crystal Form A of octahydroaminoacridine succinate were administrated through the intragastric route with Crystal Form A of octahydroaminoacridine succinate by 0.7, 1.4 and 2.8 mg/kg (equivalent to 0.96, 1.92 and 3.85 times the clinical daily dosage of 8 mg/70 kg). The water maze test and the step-down test were carried out after continuous administration for 7 days, and the administration was continued during the test period. The water maze test was continuously performed for 7 days, in the first 6 days, in four different water entry points of quadrants 1, 2, 3 and 4, the time, the swimming path length, the orientation angle and the average speed of the rat reaching the platform were measured, meanwhile, the strategy for reaching the platform adopted by rats was observed, on the 7th day, the platform was removed, the number of rats crossing the platform in 2 minutes, the residence time in the platform area, the residence time in the platform quadrants, the percentage of the swimming path length in the platform area quadrants to the total swimming path length, the average speed and the orientation angle were measured. After the water maze test was finished, the step-down test was performed, and the number of electric shocks (or called as the error number) received by each rat within 5 minutes was recorded as the learning performance. The test was performed again after 24 hours, namely, the memory retention test, and the latent period for stepping-down the platform for the first time and the error number in five minutes were recorded. After the step-down test was finished, the brain was taken quickly for pathological examination, and the pathological changes of the hippocampus and the cortex were observed.

[2] = test system: rats with common carotid artery occlusion-induced vascular dementia; experiment: Water maze test, common carotid artery occlusion-induced vascular dementia rats; assay type: in vivo, rat; settings: succinate; for orientation angle for reaching the platform / speed for reaching the platform / swimming path length for reaching the platform / time for reaching the platform: x ± s; for Average speed / Number of crossing the platform / Orientation angle / Swimming path length in the platform area/total swimming path length × 100% / Time in the platform area / Time in the platform quadrants: Day 7
Excerpt: as §1

[3] = 0.7 mg/kg intragastric, 0.7 mg/kg
[4] = 1.4 mg/kg intragastric, 1.4 mg/kg
[5] = 2.8 mg/kg intragastric, 2.8 mg/kg
[6] = Day 1, 0.7 mg/kg intragastric, 0.7 mg/kg
[7] = Day 1, 1.4 mg/kg intragastric, 1.4 mg/kg
[8] = Day 1, 2.8 mg/kg intragastric, 2.8 mg/kg
[9] = Day 2, 0.7 mg/kg intragastric, 0.7 mg/kg
[10] = Day 2, 1.4 mg/kg intragastric, 1.4 mg/kg
[11] = Day 2, 2.8 mg/kg intragastric, 2.8 mg/kg
[12] = Day 3, 0.7 mg/kg intragastric, 0.7 mg/kg
[13] = Day 3, 1.4 mg/kg intragastric, 1.4 mg/kg
[14] = Day 3, 2.8 mg/kg intragastric, 2.8 mg/kg
[15] = Day 4, 0.7 mg/kg intragastric, 0.7 mg/kg
[16] = Day 4, 1.4 mg/kg intragastric, 1.4 mg/kg
[17] = Day 4, 2.8 mg/kg intragastric, 2.8 mg/kg
[18] = Day 5, 0.7 mg/kg intragastric, 0.7 mg/kg
[19] = Day 5, 1.4 mg/kg intragastric, 1.4 mg/kg
[20] = Day 5, 2.8 mg/kg intragastric, 2.8 mg/kg
[21] = Day 6, 0.7 mg/kg intragastric, 0.7 mg/kg
[22] = Day 6, 1.4 mg/kg intragastric, 1.4 mg/kg
[23] = Day 6, 2.8 mg/kg intragastric, 2.8 mg/kg

Nc1c2c(nc3c1CCCC3)CCCC2.O=C(O)CCC(=O)O [Crystal Form K, 9-amino-1,2,3,4,5,6,7,8-octahydroacridine succinate]
Day 1, Error number [1, 3]: 9.21 ± 4.52
Day 2, Error latency [1, 3]: 146.89 ± 60.45 s
Day 2, Error number [1, 3]: 2.49 ± 2.35
Day 1, Error number [1, 4]: 8.34 ± 3.78
Day 2, Error latency [1, 4]: 178.46 ± 52.77 s
Day 2, Error number [1, 4]: 3.34 ± 1.49
Day 1, Error number [1, 5]: 8.46 ± 4.68
Day 2, Error latency [1, 5]: 192.55 ± 87.48 s
Day 2, Error number [1, 5]: 3.41 ± 1.88
adopted strategy for reaching the platform (the peripheral type and the random type %) [2, 6]: 93.00%
orientation angle for reaching the platform [2, 6]: 68.46 ± 25.21 °
speed for reaching the platform [2, 6]: 21.26 ± 4.78 cm/s
swimming path length for reaching the platform [2, 6]: 1602.41 ± 583.25 cm
time for reaching the platform [2, 6]: 75.36 ± 14.23 s
adopted strategy for reaching the platform (the peripheral type and the random type %) [2, 7]: 86.50%
orientation angle for reaching the platform [2, 7]: 69.28 ± 21.03 °
speed for reaching the platform [2, 7]: 20.45 ± 9.24 cm/s
swimming path length for reaching the platform [2, 7]: 1502.83 ± 613.11 cm
time for reaching the platform [2, 7]: 73.45 ± 14.49 s
adopted strategy for reaching the platform (the peripheral type and the random type %) [2, 8]: 79.00%
orientation angle for reaching the platform [2, 8]: 70.38 ± 18.48 °
speed for reaching the platform [2, 8]: 19.88 ± 6.76 cm/s
swimming path length for reaching the platform [2, 8]: 1211.27 ± 259.82 cm
time for reaching the platform [2, 8]: 70.25 ± 9.82 s
adopted strategy for reaching the platform (the peripheral type and the random type %) [2, 9]: 83.50%
orientation angle for reaching the platform [2, 9]: 60.47 ± 24.23 °
speed for reaching the platform [2, 9]: 21.66 ± 8.76 cm/s
swimming path length for reaching the platform [2, 9]: 1242.31 ± 438.47 cm
time for reaching the platform [2, 9]: 57.33 ± 17.88 s
adopted strategy for reaching the platform (the peripheral type and the random type %) [2, 10]: 80.00%
orientation angle for reaching the platform [2, 10]: 58.29 ± 17.83 °
speed for reaching the platform [2, 10]: 24.28 ± 9.65 cm/s
swimming path length for reaching the platform [2, 10]: 1219.38 ± 892.43 cm
time for reaching the platform [2, 10]: 50.21 ± 20.11 s
adopted strategy for reaching the platform (the peripheral type and the random type %) [2, 11]: 76.50%
orientation angle for reaching the platform [2, 11]: 57.88 ± 17.43 °
speed for reaching the platform [2, 11]: 28.24 ± 4.72 cm/s
swimming path length for reaching the platform [2, 11]: 1377.38 ± 328.92 cm
time for reaching the platform [2, 11]: 47.36 ± 14.52 s
adopted strategy for reaching the platform (the peripheral type and the random type %) [2, 12]: 70.50%
orientation angle for reaching the platform [2, 12]: 59.03 ± 16.89 °
speed for reaching the platform [2, 12]: 20.12 ± 8.22 cm/s
swimming path length for reaching the platform [2, 12]: 749.48 ± 427.45 cm
time for reaching the platform [2, 12]: 45.78 ± 10.33 s
adopted strategy for reaching the platform (the peripheral type and the random type %) [2, 13]: 71.00%
orientation angle for reaching the platform [2, 13]: 58.22 ± 10.34 °
speed for reaching the platform [2, 13]: 21.34 ± 6.99 cm/s
swimming path length for reaching the platform [2, 13]: 763.45 ± 414.55 cm
time for reaching the platform [2, 13]: 44.29 ± 20.13 s
adopted strategy for reaching the platform (the peripheral type and the random type %) [2, 14]: 65.50%
orientation angle for reaching the platform [2, 14]: 55.11 ± 16.99 °
speed for reaching the platform [2, 14]: 20.10 ± 6.82 cm/s
swimming path length for reaching the platform [2, 14]: 644.62 ± 582.37 cm
time for reaching the platform [2, 14]: 40.67 ± 13.41 s
adopted strategy for reaching the platform (the peripheral type and the random type %) [2, 15]: 75.50%
orientation angle for reaching the platform [2, 15]: 55.36 ± 19.61 °
speed for reaching the platform [2, 15]: 21.70 ± 10.21 cm/s
swimming path length for reaching the platform [2, 15]: 788.25 ± 300.86 cm
time for reaching the platform [2, 15]: 40.55 ± 16.73 s
adopted strategy for reaching the platform (the peripheral type and the random type %) [2, 16]: 68.00%
orientation angle for reaching the platform [2, 16]: 53.49 ± 14.67 °
speed for reaching the platform [2, 16]: 20.28 ± 6.02 cm/s
swimming path length for reaching the platform [2, 16]: 752.34 ± 467.22 cm
time for reaching the platform [2, 16]: 39.57 ± 18.69 s
adopted strategy for reaching the platform (the peripheral type and the random type %) [2, 17]: 62.50%
orientation angle for reaching the platform [2, 17]: 50.35 ± 15.5 °
speed for reaching the platform [2, 17]: 21.00 ± 5.91 cm/s
swimming path length for reaching the platform [2, 17]: 703.47 ± 231.68 cm
time for reaching the platform [2, 17]: 37.88 ± 17.67 s
adopted strategy for reaching the platform (the peripheral type and the random type %) [2, 18]: 72.50%
orientation angle for reaching the platform [2, 18]: 53.56 ± 14.56 °
speed for reaching the platform [2, 18]: 21.42 ± 7.22 cm/s
swimming path length for reaching the platform [2, 18]: 664.56 ± 562.88 cm
time for reaching the platform [2, 18]: 31.42 ± 17.35 s
adopted strategy for reaching the platform (the peripheral type and the random type %) [2, 19]: 62.00%
orientation angle for reaching the platform [2, 19]: 52.76 ± 19.40 °
speed for reaching the platform [2, 19]: 21.26 ± 8.46 cm/s
swimming path length for reaching the platform [2, 19]: 689.43 ± 267.98 cm
time for reaching the platform [2, 19]: 34.62 ± 12.48 s
adopted strategy for reaching the platform (the peripheral type and the random type %) [2, 20]: 58.50%
orientation angle for reaching the platform [2, 20]: 53.49 ± 23.42 °
speed for reaching the platform [2, 20]: 22.93 ± 6.31 cm/s
swimming path length for reaching the platform [2, 20]: 642.45 ± 386.45 cm
time for reaching the platform [2, 20]: 28.41 ± 8.73 s
adopted strategy for reaching the platform (the peripheral type and the random type %) [2, 21]: 70.00%
orientation angle for reaching the platform [2, 21]: 50.39 ± 22.30 °
speed for reaching the platform [2, 21]: 19.52 ± 14.27 cm/s
swimming path length for reaching the platform [2, 21]: 523.46 ± 237.12 cm
time for reaching the platform [2, 21]: 32.45 ± 21.25 s
adopted strategy for reaching the platform (the peripheral type and the random type %) [2, 22]: 66.50%
orientation angle for reaching the platform [2, 22]: 50.34 ± 20.04 °
speed for reaching the platform [2, 22]: 22.54 ± 9.36 cm/s
swimming path length for reaching the platform [2, 22]: 531.55 ± 169.37 cm
time for reaching the platform [2, 22]: 28.21 ± 15.63 s
adopted strategy for reaching the platform (the peripheral type and the random type %) [2, 23]: 54.00%
orientation angle for reaching the platform [2, 23]: 46.37 ± 26.8 °
speed for reaching the platform [2, 23]: 21.32 ± 7.46 cm/s
swimming path length for reaching the platform [2, 23]: 502.78 ± 482.65 cm
time for reaching the platform [2, 23]: 29.10 ± 17.83 s
Average speed [2, 3]: 23.62 ± 8.38 cm/s
Number of crossing the platform [2, 3]: 5.67 ± 3.45
Orientation angle [2, 3]: 27.88 ± 6.57 °
Swimming path length in the platform area/total swimming path length × 100% [2, 3]: 26.88 ± 7.36%
Time in the platform area [2, 3]: 2.87 ± 2.14 s
Time in the platform quadrants [2, 3]: 35.61 ± 10.91 s
Average speed [2, 4]: 24.69 ± 5.76 cm/s
Number of crossing the platform [2, 4]: 7.25 ± 2.45
Orientation angle [2, 4]: 24.69 ± 8.21 °
Swimming path length in the platform area/total swimming path length × 100% [2, 4]: 28.74 ± 8.90%
Time in the platform area [2, 4]: 2.18 ± 2.34 s
Time in the platform quadrants [2, 4]: 37.88 ± 12.37 s
Average speed [2, 5]: 25.45 ± 6.98 cm/s
Number of crossing the platform [2, 5]: 7.49 ± 3.51
Orientation angle [2, 5]: 23.57 ± 4.76 °
Swimming path length in the platform area/total swimming path length × 100% [2, 5]: 27.39 ± 10.42%
Time in the platform area [2, 5]: 2.56 ± 3.27 s
Time in the platform quadrants [2, 5]: 34.52 ± 15.82 s
